Reference: publication PMC3747596 (PLoS ONE, 2013)
Like-named read-outs stand apart in the source and are kept apart here.

Assays:
[1] = molecular target: T1, α1A-adrenoceptor (α1A-AR) (Homo sapiens, UniProt P35348); experiment: Radioligand displacement, α1A; assay type: binding
T1 sequence (P35348 1-466): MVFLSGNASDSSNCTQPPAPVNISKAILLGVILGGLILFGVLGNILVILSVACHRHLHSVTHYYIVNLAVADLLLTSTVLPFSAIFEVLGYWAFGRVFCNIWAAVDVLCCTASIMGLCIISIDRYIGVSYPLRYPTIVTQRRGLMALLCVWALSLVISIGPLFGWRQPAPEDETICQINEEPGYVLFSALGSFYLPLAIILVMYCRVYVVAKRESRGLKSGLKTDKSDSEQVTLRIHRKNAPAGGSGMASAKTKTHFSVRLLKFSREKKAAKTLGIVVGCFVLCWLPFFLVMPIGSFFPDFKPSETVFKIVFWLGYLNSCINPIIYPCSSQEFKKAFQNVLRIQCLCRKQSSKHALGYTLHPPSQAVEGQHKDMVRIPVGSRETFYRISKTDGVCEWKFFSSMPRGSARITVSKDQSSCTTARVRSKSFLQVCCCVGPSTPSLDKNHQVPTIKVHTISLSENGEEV

M3 = M3 (Homo sapiens, UniProt P20309); experiment: Radioligand displacement, M3; assay type: binding
[2] = molecular target: noradrenaline (norepinephrine) transporter (NET) (Homo sapiens, UniProt P23975); experiment: Radioligand displacement, NET; assay type: binding
D2 = D2 (Homo sapiens, UniProt P14416); experiment: Radioligand displacement, D2; assay type: binding
β3 = β3 (Homo sapiens, UniProt P13945); experiment: Radioligand displacement, β3; assay type: binding
[3] = molecular target: M1 muscarinic receptors (M1-R) (Homo sapiens, UniProt P11229); experiment: Radioligand displacement, M1; assay type: binding
5-HT1b = 5-HT1b (Homo sapiens, UniProt P28222); experiment: Radioligand displacement, 5-HT1b; assay type: binding
[4] = system: human permeability glycoprotein (P-gp); settings: cited from earlier work
5-HT1e = 5-HT1e (Homo sapiens, UniProt P28566); experiment: Radioligand displacement, 5-HT1e; assay type: binding
[5] = molecular target: non-opioid receptors and transporters; experiment: Radioligand displacement panel, non-opioid targets; settings: read-out: K i for all non-opioid targets; 43 non-opioid targets
5-HT7 = 5-HT7 (Homo sapiens, UniProt P34969); experiment: Radioligand displacement, 5-HT7; assay type: binding
5-HT5a = 5-HT5a (Homo sapiens, UniProt P47898); experiment: Radioligand displacement, 5-HT5a; assay type: binding
D1 = D1 (Homo sapiens, UniProt P21728); experiment: Radioligand displacement, D1; assay type: binding
β1 = β1 (Homo sapiens, UniProt P08588); experiment: Radioligand displacement, β1; assay type: binding
δ opioid receptor = molecular target: T2, δ opioid receptor (Homo sapiens, UniProt P41143); experiment: Radioligand displacement, δ; assay type: binding; settings: K i, radioligand displacement (Table 1)
T2 construct: expressed in transfected cells

M1-R = M1-R (Homo sapiens, UniProt P11229); set-up: method as in ref 9 = [9]; 9 Inan S (2010) Pharmacological and neuroanatomical analysis of GNTI-induced repetitive behavior in mice [Ph.D. thesis Thesis]. Philadelphia, PA: Temple University. Available: http://digital.library.t; settings: at 1 µM; [3H]N-methylscopolamine; cited from earlier work
α2B = molecular target: T3, α2B (Homo sapiens, UniProt P18089); experiment: Radioligand displacement, α2B; assay type: binding
T3 sequence (P18089 1-450): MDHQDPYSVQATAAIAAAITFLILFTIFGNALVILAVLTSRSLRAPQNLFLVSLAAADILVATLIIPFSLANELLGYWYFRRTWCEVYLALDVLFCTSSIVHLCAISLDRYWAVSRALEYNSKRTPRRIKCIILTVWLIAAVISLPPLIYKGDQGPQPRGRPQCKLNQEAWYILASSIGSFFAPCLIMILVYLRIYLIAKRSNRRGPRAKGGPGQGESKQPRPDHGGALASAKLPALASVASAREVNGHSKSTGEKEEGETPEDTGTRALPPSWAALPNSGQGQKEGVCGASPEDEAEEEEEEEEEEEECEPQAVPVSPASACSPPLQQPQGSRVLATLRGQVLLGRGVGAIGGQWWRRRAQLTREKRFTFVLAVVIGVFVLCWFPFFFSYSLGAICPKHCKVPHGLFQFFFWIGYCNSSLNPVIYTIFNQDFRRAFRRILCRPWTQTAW

5-HT1a = molecular target: T4, 5-HT1a (Homo sapiens, UniProt P08908); experiment: Radioligand displacement, 5-HT1a; assay type: binding
T4 sequence (P08908 1-422): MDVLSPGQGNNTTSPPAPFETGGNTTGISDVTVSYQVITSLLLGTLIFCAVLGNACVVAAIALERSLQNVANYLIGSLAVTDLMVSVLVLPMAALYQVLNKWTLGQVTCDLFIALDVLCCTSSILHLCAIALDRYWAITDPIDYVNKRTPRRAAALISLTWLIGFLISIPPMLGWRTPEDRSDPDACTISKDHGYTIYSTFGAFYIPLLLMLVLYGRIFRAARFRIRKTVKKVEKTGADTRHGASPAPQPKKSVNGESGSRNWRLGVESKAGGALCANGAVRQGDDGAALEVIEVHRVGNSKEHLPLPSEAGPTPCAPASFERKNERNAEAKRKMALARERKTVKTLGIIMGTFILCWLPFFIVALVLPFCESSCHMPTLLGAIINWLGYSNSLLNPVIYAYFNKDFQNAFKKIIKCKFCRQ

κ-OR = system: κ-OR; set-up: method as in ref 3 = [3]; 3 Béguin C, Cohen BM (2009) Medicinal Chemistry of Kappa Opioid Receptor Antagonists. In: Dean RL, Bilsky EJ, Negus SS, editors. Opiate Receptors and Antagonists: from Bench to Clinic. New York: Human; settings: cited from earlier work
[6] = molecular target: nociceptin/orphanin FQ receptor (NOP); set-up: method as in PMID 8943250; settings: cited from earlier work
[7] = system: glucocorticoid receptor NR3C1; set-up: method as in PMID 10875228; settings: at 10 µM; cited from earlier work
[8] = Ki, [3H] radioligand Prazosin, Human, Cloned
[9] = [3H] radioligand Rauwolscine, Human, Cloned
[10] = [3H] radioligand 8-OH-DPAT, Human, Cloned
[11] = [3H] radioligand QNB, Human, Cloned, read-out: Ki
[12] = [3H] radioligand LSD, Human, Cloned, read-out: Ki

M1 muscarinic receptors (M1-R), sequence (P11229 whole entry): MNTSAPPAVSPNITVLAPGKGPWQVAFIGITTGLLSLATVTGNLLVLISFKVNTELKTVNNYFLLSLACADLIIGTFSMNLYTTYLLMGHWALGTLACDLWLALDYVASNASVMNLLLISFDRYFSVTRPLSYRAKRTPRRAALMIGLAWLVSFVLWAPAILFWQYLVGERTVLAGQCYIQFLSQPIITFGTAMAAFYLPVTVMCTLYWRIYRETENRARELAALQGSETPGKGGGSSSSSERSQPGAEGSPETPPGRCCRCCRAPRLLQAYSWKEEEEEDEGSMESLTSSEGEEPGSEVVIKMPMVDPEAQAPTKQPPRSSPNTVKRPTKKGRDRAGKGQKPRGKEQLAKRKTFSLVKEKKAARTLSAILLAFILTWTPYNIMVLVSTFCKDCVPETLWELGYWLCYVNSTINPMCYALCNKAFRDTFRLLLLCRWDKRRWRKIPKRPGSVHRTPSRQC
D2, sequence (P14416 whole entry): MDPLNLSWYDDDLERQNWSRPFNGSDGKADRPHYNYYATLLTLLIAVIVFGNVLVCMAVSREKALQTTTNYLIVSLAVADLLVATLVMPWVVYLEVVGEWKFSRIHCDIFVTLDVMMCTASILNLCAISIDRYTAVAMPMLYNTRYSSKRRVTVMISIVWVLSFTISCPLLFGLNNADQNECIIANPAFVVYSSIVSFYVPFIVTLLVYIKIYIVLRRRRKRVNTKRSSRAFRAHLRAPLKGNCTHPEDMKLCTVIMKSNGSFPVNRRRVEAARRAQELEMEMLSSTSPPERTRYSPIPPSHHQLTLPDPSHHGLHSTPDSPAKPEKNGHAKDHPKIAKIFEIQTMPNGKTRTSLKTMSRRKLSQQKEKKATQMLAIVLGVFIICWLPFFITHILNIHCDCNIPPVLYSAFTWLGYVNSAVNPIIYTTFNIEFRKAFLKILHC
5-HT5a, sequence (P47898 whole entry): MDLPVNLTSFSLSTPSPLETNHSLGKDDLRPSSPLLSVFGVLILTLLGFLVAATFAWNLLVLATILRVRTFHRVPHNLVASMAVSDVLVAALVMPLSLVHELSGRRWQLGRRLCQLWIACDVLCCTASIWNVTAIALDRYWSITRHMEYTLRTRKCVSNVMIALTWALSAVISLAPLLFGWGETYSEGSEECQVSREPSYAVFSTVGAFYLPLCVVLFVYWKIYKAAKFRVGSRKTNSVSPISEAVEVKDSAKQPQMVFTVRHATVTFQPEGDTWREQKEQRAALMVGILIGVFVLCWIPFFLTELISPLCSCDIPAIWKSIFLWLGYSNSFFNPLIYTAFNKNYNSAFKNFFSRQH
5-HT1e, sequence (P28566 whole entry): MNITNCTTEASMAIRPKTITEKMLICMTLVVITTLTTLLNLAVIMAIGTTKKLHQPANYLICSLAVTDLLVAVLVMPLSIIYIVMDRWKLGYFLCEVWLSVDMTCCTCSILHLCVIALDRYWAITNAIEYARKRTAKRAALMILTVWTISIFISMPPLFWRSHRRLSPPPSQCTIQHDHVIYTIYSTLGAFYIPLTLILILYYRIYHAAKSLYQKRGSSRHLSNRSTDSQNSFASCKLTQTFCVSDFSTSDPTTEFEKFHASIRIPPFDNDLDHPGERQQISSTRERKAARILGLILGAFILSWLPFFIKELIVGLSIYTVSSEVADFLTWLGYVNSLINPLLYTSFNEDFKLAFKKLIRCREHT
β1, sequence (P08588 whole entry): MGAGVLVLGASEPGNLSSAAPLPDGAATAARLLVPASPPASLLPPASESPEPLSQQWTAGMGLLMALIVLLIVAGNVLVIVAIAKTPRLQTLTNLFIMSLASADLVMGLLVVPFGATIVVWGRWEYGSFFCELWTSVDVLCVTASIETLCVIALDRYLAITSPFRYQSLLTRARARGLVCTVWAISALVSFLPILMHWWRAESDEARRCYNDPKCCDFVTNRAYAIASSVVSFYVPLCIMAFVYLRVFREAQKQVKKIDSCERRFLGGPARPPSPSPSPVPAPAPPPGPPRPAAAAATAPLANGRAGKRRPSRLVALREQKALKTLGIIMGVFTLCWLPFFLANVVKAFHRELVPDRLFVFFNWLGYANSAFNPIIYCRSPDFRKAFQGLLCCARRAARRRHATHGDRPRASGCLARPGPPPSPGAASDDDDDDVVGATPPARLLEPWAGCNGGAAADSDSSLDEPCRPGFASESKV
noradrenaline (norepinephrine) transporter (NET), sequence (P23975 whole entry): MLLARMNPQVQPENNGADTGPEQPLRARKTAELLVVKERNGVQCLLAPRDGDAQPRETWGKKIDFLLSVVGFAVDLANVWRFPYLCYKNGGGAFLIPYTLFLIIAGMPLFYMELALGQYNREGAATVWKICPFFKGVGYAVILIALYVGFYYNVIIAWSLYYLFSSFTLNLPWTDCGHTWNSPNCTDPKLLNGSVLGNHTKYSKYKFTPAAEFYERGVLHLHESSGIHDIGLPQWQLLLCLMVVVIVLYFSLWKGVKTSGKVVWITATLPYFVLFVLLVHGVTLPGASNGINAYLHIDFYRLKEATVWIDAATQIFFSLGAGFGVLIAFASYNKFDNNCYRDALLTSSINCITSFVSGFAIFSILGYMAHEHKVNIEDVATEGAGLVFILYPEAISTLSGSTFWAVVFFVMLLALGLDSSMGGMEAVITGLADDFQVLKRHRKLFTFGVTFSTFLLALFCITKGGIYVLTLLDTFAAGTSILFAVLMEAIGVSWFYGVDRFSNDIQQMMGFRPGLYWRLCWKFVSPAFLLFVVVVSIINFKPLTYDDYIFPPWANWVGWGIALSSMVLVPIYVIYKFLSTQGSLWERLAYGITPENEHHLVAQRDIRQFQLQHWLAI
5-HT1b, sequence (P28222 whole entry): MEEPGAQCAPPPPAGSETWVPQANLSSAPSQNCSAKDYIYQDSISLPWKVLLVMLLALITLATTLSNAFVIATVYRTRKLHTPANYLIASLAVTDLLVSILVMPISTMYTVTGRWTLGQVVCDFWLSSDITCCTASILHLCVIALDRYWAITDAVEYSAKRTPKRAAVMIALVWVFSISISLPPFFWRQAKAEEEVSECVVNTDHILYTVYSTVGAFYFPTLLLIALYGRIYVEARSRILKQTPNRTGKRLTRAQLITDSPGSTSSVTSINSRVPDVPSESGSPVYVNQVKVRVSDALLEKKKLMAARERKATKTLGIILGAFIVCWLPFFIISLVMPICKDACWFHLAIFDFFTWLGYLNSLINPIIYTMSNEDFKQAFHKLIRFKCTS
M3, sequence (P20309 whole entry): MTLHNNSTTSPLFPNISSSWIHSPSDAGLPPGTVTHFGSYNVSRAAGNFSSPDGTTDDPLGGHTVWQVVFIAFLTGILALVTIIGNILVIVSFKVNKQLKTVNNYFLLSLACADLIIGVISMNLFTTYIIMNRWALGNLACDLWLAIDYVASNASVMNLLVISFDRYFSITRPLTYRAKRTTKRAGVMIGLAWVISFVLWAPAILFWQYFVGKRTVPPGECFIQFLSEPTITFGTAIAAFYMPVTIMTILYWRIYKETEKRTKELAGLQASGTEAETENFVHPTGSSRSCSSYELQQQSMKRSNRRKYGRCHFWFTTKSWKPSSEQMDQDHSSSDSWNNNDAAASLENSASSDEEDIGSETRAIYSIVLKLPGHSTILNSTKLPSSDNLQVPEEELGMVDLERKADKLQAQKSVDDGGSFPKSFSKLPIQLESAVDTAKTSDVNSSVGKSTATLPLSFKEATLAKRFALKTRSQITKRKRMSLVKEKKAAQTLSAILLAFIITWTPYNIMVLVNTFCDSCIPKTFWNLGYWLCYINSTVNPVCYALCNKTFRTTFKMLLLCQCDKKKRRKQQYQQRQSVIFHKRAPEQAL
D1, sequence (P21728 whole entry): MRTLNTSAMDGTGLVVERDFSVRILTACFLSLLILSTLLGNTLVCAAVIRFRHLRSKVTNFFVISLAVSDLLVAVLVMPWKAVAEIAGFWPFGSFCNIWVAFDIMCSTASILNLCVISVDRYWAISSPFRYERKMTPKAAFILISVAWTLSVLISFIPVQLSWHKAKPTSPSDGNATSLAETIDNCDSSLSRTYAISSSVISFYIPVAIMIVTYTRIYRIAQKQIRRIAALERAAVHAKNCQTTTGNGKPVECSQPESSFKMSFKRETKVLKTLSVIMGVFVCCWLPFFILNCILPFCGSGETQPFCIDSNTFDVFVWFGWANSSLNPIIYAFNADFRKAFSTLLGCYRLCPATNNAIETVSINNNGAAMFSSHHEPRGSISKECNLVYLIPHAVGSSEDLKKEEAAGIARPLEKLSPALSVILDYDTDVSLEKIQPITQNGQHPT
β3, sequence (P13945 whole entry): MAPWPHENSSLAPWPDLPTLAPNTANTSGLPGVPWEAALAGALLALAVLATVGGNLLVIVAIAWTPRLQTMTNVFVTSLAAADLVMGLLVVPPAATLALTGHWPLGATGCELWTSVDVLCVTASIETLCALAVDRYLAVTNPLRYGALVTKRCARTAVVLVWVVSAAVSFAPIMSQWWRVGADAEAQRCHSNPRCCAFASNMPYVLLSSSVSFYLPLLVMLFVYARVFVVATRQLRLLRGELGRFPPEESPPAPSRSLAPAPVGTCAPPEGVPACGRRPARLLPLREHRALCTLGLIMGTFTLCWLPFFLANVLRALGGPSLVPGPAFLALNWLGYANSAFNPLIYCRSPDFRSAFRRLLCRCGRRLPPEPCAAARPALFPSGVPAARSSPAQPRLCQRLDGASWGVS
M1-R, sequence (P11229 whole entry): as the sequence (P11229 whole entry) above
T2 sequence (P41143 whole entry): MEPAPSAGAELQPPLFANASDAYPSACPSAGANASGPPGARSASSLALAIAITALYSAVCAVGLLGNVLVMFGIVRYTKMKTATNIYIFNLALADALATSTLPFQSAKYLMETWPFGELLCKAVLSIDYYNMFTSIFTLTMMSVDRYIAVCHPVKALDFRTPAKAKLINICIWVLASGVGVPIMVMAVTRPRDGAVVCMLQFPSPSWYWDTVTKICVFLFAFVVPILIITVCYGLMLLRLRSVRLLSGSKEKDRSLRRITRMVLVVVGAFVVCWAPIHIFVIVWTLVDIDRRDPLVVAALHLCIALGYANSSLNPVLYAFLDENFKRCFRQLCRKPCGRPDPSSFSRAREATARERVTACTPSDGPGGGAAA

Row | SMILES | Ki [1, 8] | Ki (M3) | Ki [2] | Ki (D2) | Ki (β3) | Ki [3] | Ki (5-HT1b) | substrate of human P-gp [4] | Ki (5-HT1e) | Ki (5-HT7) | Ki (5-HT5a) | Ki (D1) | Ki (β1) | Ki (α2B; [9]) | Ki (5-HT1a; [10]) | further results
1 | N=C(N)Nc1ccc2[nH]c3c(c2c1)C[C@@]1(O)[C@H]2Cc4ccc(O)c5c4[C@@]1(CCN2CC1CC1)[C@H]3O5 [GNTI, 5′-guanidinonaltrindole] | 9.5 µM | ≥ 10 µM | ≥ 10 µM | ≥ 10 µM | ≥ 10 µM | ≥ 10 µM | ≥ 10 µM | not substrates | ≥ 10 µM | ≥ 10 µM | ≥ 10 µM | ≥ 10 µM | ≥ 10 µM | ≥ 10000 nM | ≥ 10000 nM | modulation of the displacement of [125I]HEAT by noradrenaline ([1]; 10 µM GNTI): did not detectably modulate; Ki ([1]; Ki, binding curve File S1, Alpha1A Receptor, [125I]HEAT (0.03 nM), for 14674 the curve marked old): 9.47 µM; displacement from M1-R ([3]; at 10 µM, [3H]3-quinuclidinyl benzilate (QNB)): 49%; Ki [5]: > 2000 nM; Ki (δ opioid receptor): 58 nM; displacement from M1-R (M1-R): 52%
2 | CC(C)[C@@H](CN1CC[C@@](C)(c2cccc(O)c2)[C@@H](C)C1)NC(=O)[C@H]1Cc2ccc(O)cc2CN1 [JDTic] | – | – | – | – | – | – | – | – | – | – | – | – | – | ≥ 10000 nM | ≥ 10000 nM | Ki ([1]; read-out: Ki): ≥ 10 µM; Ki (M3; [11]): ≥ 10 µM; Ki ([2]; NET, versus [3H]nisoxetine (Table 1), read-out: K i): 0.054 µM; Ki (D2; [3H] radioligand N-Methylspiperone, Human, Cloned, read-out: Ki): ≥ 10 µM; K e in κ-OR functional assays (κ-OR): < 20 pM; Ki (β3; [3H] radioligand CGP12177, Human, Cloned, read-out: Ki): ≥ 10 µM; Ki [3, 11]: ≥ 10 µM; Ki (5-HT1b; [3H] radioligand GR125743, Human, Cloned, read-out: Ki): ≥ 10 µM; Ki (5-HT1e; [3H] radioligand 5HT, Human, Cloned, read-out: Ki): ≥ 10 µM; Ki (5-HT7; [12]): ≥ 10 µM; Ki (5-HT5a; [12]): ≥ 10 µM; Ki (D1; [3H] radioligand SCH23390, Human, Cloned, read-out: Ki): ≥ 10 µM; Ki (β1; [3H] radioligand CGP12177, Human, Heart, read-out: Ki): ≥ 10 µM
3 | Oc1ccc2c3c1O[C@H]1c4[nH]c5c(c4C[C@@]4(O)[C@@H](C2)N(CC2CC2)CC[C@]314)C[C@@]1(O)[C@H]2Cc3ccc(O)c4c3[C@@]1(CCN2CC1CC1)[C@H]5O4 [nor-BNI, Nor-binaltorphimine] | ≥ 10 µM | ≥ 10 µM | ≥ 10 µM | ≥ 10 µM | ≥ 10 µM | ≥ 10 µM | ≥ 10 µM | not substrates | ≥ 10 µM | ≥ 10 µM | ≥ 10 µM | ≥ 10 µM | ≥ 10 µM | 1460 nM | 1110 nM | Ki [6]: 780 nM; binding to glucocorticoid receptor NR3C1 [7]: No binding was detected; Ki (α2B; binding curve File S1, Alpha2B Receptor, [125I]Clonidine (0.12 nM), Alpha2 Binding Buffer): 1460 nM; Ki (α2B; α2B, radioligand displacement (Table 1)): 1500 nM; Ki (5-HT1a; 5-HT1a, radioligand displacement (Table 1)): 1100 nM; Ki (5-HT1a; binding curve File S1, 5-HT1A Receptor, [3H]8-OH-DPAT (0.5 nM), Standard Binding Buffer): 1110 nM
